{"source": "paper PMC6606765", "about": "“Stargazin and γ4 slow the channel opening and closing rates of GluA4 AMPA receptors” (Scientific Reports, 2019)", "key": {"GluA4/γ2 [1]": {"biological_target": "T1, GluA4/γ2 (Rattus norvegicus, UniProt P19493)", "T1 construct": "expressed in transfected cells; host or cells: HEK-293S", "T1 sequence (P19493 21-902 isoform P19493-2 limits assumed)": "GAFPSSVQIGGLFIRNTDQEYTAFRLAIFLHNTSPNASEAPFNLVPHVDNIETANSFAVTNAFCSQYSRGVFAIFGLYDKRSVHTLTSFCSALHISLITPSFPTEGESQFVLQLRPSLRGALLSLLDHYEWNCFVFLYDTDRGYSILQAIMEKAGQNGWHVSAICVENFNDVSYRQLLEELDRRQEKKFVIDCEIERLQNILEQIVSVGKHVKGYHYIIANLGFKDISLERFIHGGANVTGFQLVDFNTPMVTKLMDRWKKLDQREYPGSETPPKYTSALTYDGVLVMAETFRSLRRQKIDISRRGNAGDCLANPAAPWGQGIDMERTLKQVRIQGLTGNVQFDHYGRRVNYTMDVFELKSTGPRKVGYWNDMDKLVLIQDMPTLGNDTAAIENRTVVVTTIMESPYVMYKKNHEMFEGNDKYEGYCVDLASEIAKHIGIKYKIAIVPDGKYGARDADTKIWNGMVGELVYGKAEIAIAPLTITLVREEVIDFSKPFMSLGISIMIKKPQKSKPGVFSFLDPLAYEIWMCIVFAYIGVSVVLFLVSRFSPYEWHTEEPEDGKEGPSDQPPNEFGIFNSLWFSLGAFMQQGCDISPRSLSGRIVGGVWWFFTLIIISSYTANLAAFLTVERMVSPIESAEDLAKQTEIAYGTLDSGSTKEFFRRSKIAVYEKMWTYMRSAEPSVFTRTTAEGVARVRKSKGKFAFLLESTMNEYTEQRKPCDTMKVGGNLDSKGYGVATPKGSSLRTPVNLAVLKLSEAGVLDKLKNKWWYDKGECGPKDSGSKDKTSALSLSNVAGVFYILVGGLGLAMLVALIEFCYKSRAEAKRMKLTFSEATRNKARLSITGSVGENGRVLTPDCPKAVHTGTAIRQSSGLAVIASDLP", "test": "Laser-pulse photolysis of caged glutamate with whole-cell current recording (channel-opening kinetics)", "assay_type": "cell-based", "protocol": "(§1) The γ-2 and γ-4 plasmids were generously provided by Prof. Susumu Tomita. The flip isoform of GluA4[30] with and without a TARP was transiently expressed in HEK-293S cell. The tissue culture and transfection procedure were described before. In brief, HEK-293S cells were cultured in Dulbecco’s modified Eagle’s medium supplemented with 10% fetal bovine serum, 100 U/mL penicillin, and 100 μg/mL streptomycin in a 37 °C, 6% CO2, humidified incubator. In co-transfecting a TARP, we used 1:1 and 1:2 weight ratio of the plasmid of GluA4 to a TARP (GluA4 plasmid was 3–6 μg/35 mm dish). Co-transfection also included green fluorescent protein (GFP) and large T-antigen (TAg)[46]. We also added a 2,3-benzodiazepine inhibitor[47] after transfection to prevent cell toxicity due to transfection of TARP. Transfected cells were grown for >48 h before recording.\n(§2) Briefly, the pipet solution or internal solution contained (in mM) 110 CsF, 30 CsCl, 4 NaCl, 0.5 CaCl2, 5 EGTA, and 10 HEPES (pH 7.4 adjusted by NaOH). The external cellular solution or bath solution contained (in mM) 150 NaCl, 3 KCl, 1 CaCl2, 1 MgCl2, and 10 HEPES (pH 7.4 adjusted by NaOH)[46]. The GFP fluorescence in transfected cells was visualized on an Axiovert S100 microscope with a fluorescent detection system from Carl Zeiss. The whole-cell current was recorded using an Axopatch-200B amplifier at a cutoff frequency of 2–20 kHz by a built-in, four-pole Bessel filter and digitized at 5–50 kHz sampling frequency using an Axon Digidata 1322 A. Unless otherwise noted, all experiments were performed with transfected HEK-293S cells voltage-clamped at −60 mV and at 22 °C.\n(§3) The laser-pulse photolysis technique was used to measure the channel-opening kinetic constants of an AMPA receptor, as we previously reported. […] A Minilite II pulsed Q-switched Nd:YAG laser (Continuum, Santa Clara, CA) delivered single pulses at 355 nm with a pulse length of 8 ns.\n(§4) The kop and kcl values were determined from the rising phase of a whole-cell current trace in a laser-pulse photolysis experiment. […] The observed first-order rate constant of channel opening, kobs, was estimated by using Eq. 22 It=Imax(1−e^−kobst) where It and Imax represent the whole-cell current amplitude at time t, and the maximum current amplitude, respectively. Based on the general mechanism of channel opening, Eq. 3 was derived to describe the relationship between kobs and ligand concentration:3 kobs=kcl+kop(L/L+K1)^n\n(§5) In deriving Eq. 3, we assumed the rate of ligand binding was fast relative to the rate of channel opening."}, "GluA4/γ4 [2]": {"biological_target": "T2, GluA4/γ4 (Rattus norvegicus, UniProt P19493)", "T2 construct": "expressed in transfected cells; host or cells: HEK-293S", "T2 sequence (P19493 21-902 isoform P19493-2 limits assumed)": "as above", "test": "Laser-pulse photolysis of caged glutamate with whole-cell current recording (channel-opening kinetics)", "assay_type": "cell-based", "protocol": "as §1, §2, §3, §4, §5"}, "GluA4 homomeric channels [3]": {"biological_target": "T3, GluA4 homomeric channels (Rattus norvegicus, UniProt P19493)", "T3 construct": "expressed in transfected cells; host or cells: HEK-293S", "T3 sequence (P19493 21-902 isoform P19493-2 limits assumed)": "as above", "test": "Laser-pulse photolysis of caged glutamate with whole-cell current recording (channel-opening kinetics)", "assay_type": "cell-based", "conditions": "linear fit of kobs vs glutamate concentration, Eq. 3, ±SEM", "protocol": "as §1, §2, §3, §4, §5"}, "GluA4 homomeric channels [4]": {"biological_target": "T3, GluA4 homomeric channels", "set-up": "method as in PMID 15823042", "conditions": "GluA4 alone; cited from earlier work"}, "GluA4/γ2 [5]": {"biological_target": "T1, GluA4/γ2", "test": "Whole-cell current recording with fast solution flow (dose-response, desensitization) in transfected HEK-293 cells", "assay_type": "cell-based", "protocol": "as §1, §2, §3\n(§6) Based on this general, minimal mechanism of channel opening, Eq. 1 was derived. In Eq. 1, IA is the observed amplitude of macroscopic current amplitude, IM is the current per mole of receptor, RM the number of moles of receptors on the cell surface, and Φ^−1 the channel opening equilibrium constant. A non-linear regression was performed to determine K1, along with other parameters, from a dose-response relationship. Each of the current traces was corrected for desensitization before it was used in calculating dose-response relationship[48].1 IA=IMRML^n/L^n+Φ(L+K1)^n"}, "GluA4/γ4 [6]": {"biological_target": "T2, GluA4/γ4", "test": "Whole-cell current recording with fast solution flow (dose-response, desensitization) in transfected HEK-293 cells", "assay_type": "cell-based", "protocol": "as §1, §2, §3, §6"}, "GluA4 homomeric channels [7]": {"biological_target": "T3, GluA4 homomeric channels", "test": "Whole-cell current recording with fast solution flow (dose-response, desensitization) in transfected HEK-293 cells", "assay_type": "cell-based", "protocol": "as §1, §2, §3, §6"}, "[8]": {"conditions": "Table S2A nonlinear fitting, kcl fixed 1000 s-1"}, "[9]": {"conditions": "Table S2A nonlinear fitting, kcl fixed 1200 s-1"}, "[10]": {"conditions": "Table S2A nonlinear fitting, kcl fixed 1400 s-1"}, "[11]": {"conditions": "linear fit of kobs vs glutamate concentration, Eq. 3, ±SEM"}, "[12]": {"conditions": "Table S3A nonlinear fitting, kcl fixed 900 s-1"}, "[13]": {"conditions": "Table S3A nonlinear fitting, kcl fixed 1100 s-1"}, "[14]": {"conditions": "Table S3A nonlinear fitting, kcl fixed 1300 s-1"}, "[15]": {"conditions": "best fit of dose-response with Eq. 1"}, "[16]": {"conditions": "mean ±SD, saturated whole-cell responses evoked by 10 and 20 mM glutamate, HEK-293S, −60 mV, 22 °C"}}, "note": "“And” between values parts separate entries of the source, which are not always exact repeats. Equal values may be shown once.", "data": [{"molecule": "N[C@@H](CCC(=O)O)C(=O)O", "note": "[glutamate]", "values": [{"measurement": "Popen (channel-opening probability)", "setting": "GluA4/γ2 [1]; Popen = kop/(kop + kcl)", "result": "~ 0.93"}, {"measurement": "kop, final output Ave.", "setting": "GluA4/γ2 [1]; [8]", "result": 17591, "unit": "s⁻¹"}, {"measurement": "n, final output Ave.", "setting": "GluA4/γ2 [1]; [8]", "result": 1.59}, {"measurement": "kop, final output Ave.", "setting": "GluA4/γ2 [1]; [9]", "result": 19225, "unit": "s⁻¹"}, {"measurement": "n, final output Ave.", "setting": "GluA4/γ2 [1]; [9]", "result": 1.88}, {"measurement": "kop, final output Ave.", "setting": "GluA4/γ2 [1]; [10]", "result": 22936, "unit": "s⁻¹"}, {"measurement": "n, final output Ave.", "setting": "GluA4/γ2 [1]; [10]", "result": 2.11}, {"measurement": "kop, final output Ave.", "setting": "GluA4/γ2 [1]; Table S2B nonlinear fitting, n fixed 2, kcl fixed 1000 s-1", "result": 15488, "unit": "s⁻¹"}, {"measurement": "kop, final output Ave.", "setting": "GluA4/γ2 [1]; Table S2B nonlinear fitting, n fixed 2, kcl fixed 1200 s-1", "result": 15607, "unit": "s⁻¹"}, {"measurement": "kop, final output Ave.", "setting": "GluA4/γ2 [1]; Table S2B nonlinear fitting, n fixed 2, kcl fixed 1400 s-1", "result": 18961, "unit": "s⁻¹"}, {"measurement": "kcl (channel-closing rate constant)", "setting": "GluA4/γ2 [1]; [11]", "result": "1.2 ± 0.1 x 10^3 s^−1 and 1.17 ± 0.11 x 10^3 s^−1"}, {"measurement": "kop (channel-opening rate constant)", "setting": "GluA4/γ2 [1]; [11]", "result": "1.3 ± 0.1 x10^4 s^−1 and 1.32 ± 0.12 x10^4 s^−1"}, {"measurement": "Popen (channel-opening probability)", "setting": "GluA4/γ4 [2]; Popen = kop/(kop + kcl)", "result": "~ 0.93"}, {"measurement": "kop, final output Ave.", "setting": "GluA4/γ4 [2]; [12]", "result": 16862, "unit": "s⁻¹"}, {"measurement": "n, final output Ave.", "setting": "GluA4/γ4 [2]; [12]", "result": 1.99}, {"measurement": "kop, final output Ave.", "setting": "GluA4/γ4 [2]; [13]", "result": 16375, "unit": "s⁻¹"}, {"measurement": "n, final output Ave.", "setting": "GluA4/γ4 [2]; [13]", "result": 2.20}, {"measurement": "kop, final output Ave.", "setting": "GluA4/γ4 [2]; [14]", "result": 15640, "unit": "s⁻¹"}, {"measurement": "n, final output Ave.", "setting": "GluA4/γ4 [2]; [14]", "result": 2.41}, {"measurement": "kop, final output Ave.", "setting": "GluA4/γ4 [2]; Table S3B nonlinear fitting, n fixed 2, kcl fixed 900 s-1", "result": 15152, "unit": "s⁻¹"}, {"measurement": "kop, final output Ave.", "setting": "GluA4/γ4 [2]; Table S3B nonlinear fitting, n fixed 2, kcl fixed 1100 s-1", "result": 13642, "unit": "s⁻¹"}, {"measurement": "kop, final output Ave.", "setting": "GluA4/γ4 [2]; Table S3B nonlinear fitting, n fixed 2, kcl fixed 1300 s-1", "result": 11557, "unit": "s⁻¹"}, {"measurement": "kcl (channel-closing rate constant)", "setting": "GluA4/γ4 [2]; [11]", "result": "1.1 ± 0.1 x 10^3 s^−1 and 1.08 ± 0.05 x 10^3 s^−1"}, {"measurement": "kop (channel-opening rate constant)", "setting": "GluA4/γ4 [2]; [11]", "result": "1.7 ± 0.2 x10^4 s^−1 and 1.70 ± 0.15 x10^4 s^−1"}, {"measurement": "kcl (channel-closing rate constant)", "setting": "GluA4 homomeric channels [3]", "result": "3.4 ± 0.1 x 10^3 s^−1 and 3.39 ± 0.11 x 10^3 s^−1"}, {"measurement": "kop (channel-opening rate constant)", "setting": "GluA4 homomeric channels [3]", "result": "6.4 ± 0.4 x10^4 s^−1 and 6.41 ± 0.44 x10^4 s^−1"}, {"measurement": "Popen (channel-opening probability)", "setting": "GluA4 homomeric channels [4]", "result": 0.96}, {"measurement": "Φ (Φ^−1 = channel opening equilibrium constant)", "setting": "GluA4/γ2 [5]; [15]", "result": "0.41 ± 0.95"}, {"measurement": "Hill Coefficient", "setting": "GluA4/γ2 [5]; dose-response curve", "result": "1.07 ± 0.14"}, {"measurement": "kdes (maximum desensitization rate constant)", "setting": "GluA4/γ2 [5]; [16]", "result": "135 ± 11", "unit": "s⁻¹"}, {"measurement": "Φ (Φ^−1 = channel opening equilibrium constant)", "setting": "GluA4/γ4 [6]; [15]", "result": "0.39 ± 1.36"}, {"measurement": "Hill Coefficient", "setting": "GluA4/γ4 [6]; dose-response curve", "result": "1.08 ± 0.10"}, {"measurement": "kdes (maximum desensitization rate constant)", "setting": "GluA4/γ4 [6]; [16]", "result": "90 ± 12", "unit": "s⁻¹"}, {"measurement": "Φ (Φ^−1 = channel opening equilibrium constant)", "setting": "GluA4 homomeric channels [7]; [15]", "result": "0.36 ± 0.88"}, {"measurement": "Hill Coefficient", "setting": "GluA4 homomeric channels [7]; dose-response curve", "result": "2.18 ± 0.21"}, {"measurement": "kdes (maximum desensitization rate constant)", "setting": "GluA4 homomeric channels [7]; [16]", "result": "181 ± 7", "unit": "s⁻¹"}]}]}
